# Numbered stars: 1 amine (or outer) side, 2 acyl side, 3 side chain; on linkers, the order of the positions; unused ones are H or OH. Square brackets hold non-standard residues; d marks the D form. Side chains are listed from the residue outwards. Peptide text beside a SMILES is read from it. * marks the point of attachment. C18 diacid = O=C(O)CCCCCCCCCCCCCCCCC(=O)*; αMePhe(2-F) = C[C@](N)(Cc1ccccc1F)C(=O)O; γGlu = O=C(O)[C@H](CCC(=O)[*:2])N[*:1]; αMeY = C[C@](N)(Cc1ccc(O)cc1)C(=O)O; αMeL = CC(C)C[C@](C)(N)C(=O)O; Orn = NCCC[C@H](N)C(=O)O; AEEA = NCCOCCOCC(=O)O; Aib = CC(C)(N)C(=O)O
# Legend:
# human GIP receptor = target: T1, human GIP receptor (Homo sapiens, UniProt P48546); test: [125I]-GIP binding (SPA), human GIP receptor; details: read-out: hGIPR Ki, nM (SEM, n)
# T1 construct: expressed in transfected cells; crude membranes
# T1 sequence (P48546 22-466): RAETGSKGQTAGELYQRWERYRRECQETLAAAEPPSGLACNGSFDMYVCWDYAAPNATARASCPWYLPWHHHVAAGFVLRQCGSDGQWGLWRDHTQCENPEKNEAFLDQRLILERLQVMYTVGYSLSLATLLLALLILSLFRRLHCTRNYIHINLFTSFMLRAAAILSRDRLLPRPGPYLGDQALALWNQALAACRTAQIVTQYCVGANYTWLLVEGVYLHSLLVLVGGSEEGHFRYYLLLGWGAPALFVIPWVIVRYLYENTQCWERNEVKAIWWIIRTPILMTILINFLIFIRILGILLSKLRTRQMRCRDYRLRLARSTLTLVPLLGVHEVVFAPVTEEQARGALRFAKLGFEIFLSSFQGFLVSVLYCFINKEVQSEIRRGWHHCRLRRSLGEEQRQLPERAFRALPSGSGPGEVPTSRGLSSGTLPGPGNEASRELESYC
# human GLP-1R = human GLP-1R (Homo sapiens, UniProt P43220); test: [125I]-GLP-1 binding (SPA), human GLP-1 receptor; parameters: expressed in transfected cells; crude membranes; details: read-out: hGLP1R Ki, (nM) (SEM, n)
# How it was run: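 Membranes: hypotonic lysis (50 mM Tris HCl, pH 7.5, protease inhibitors), Potter-Elvehjem homogenization, high-speed pellet (35000×g 1 h or 25000×g 30 min, 4° C.). Buffer: 25 mM HEPES pH 7.4, 2.5 mM CaCl2, 1 mM MgCl2. Four-parameter IC50 fit; Ki as geometric mean ± SEM.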
# human Gcg receptor = target: T2, human Gcg receptor (Homo sapiens, UniProt P47871); test: [125I]-Glucagon binding (SPA), human Gcg receptor; details: read-out: hGLcgR Ki, nM (SEM, n)
# T2 construct: expressed in transfected cells; crude membranes
# How it was run: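 Crude membranes from cells expressing the receptor, prepared by hypotonic lysis in 50 mM Tris HCl pH 7.5 with protease inhibitors, homogenization and differential centrifugation, were used in a WGA-bead SPA. Binding buffer: 25 mM HEPES pH 7.4, 2.5 mM CaCl2, 1 mM MgCl2, bacitracin, Tween-20.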
# [1] = target: T3, gastric inhibitory peptide receptor (GIPR) (Homo sapiens, UniProt P48546); test: cAMP pharmacological functional assay in presence of casein, hGIPR; type: cell-based; details: HEK293 cells expressing hGIPR, 0.1% Casein, geometric mean; read-out: hGIPR cAMP Rel EC50 nM (SEM, n)
# T3 sequence (P48546 22-466): T1 sequence (P48546 22-466)
# [2] = target: human GLP-1 receptor (GLP-1R) (Homo sapiens, UniProt P43220); test: cAMP pharmacological functional assay in presence of casein, hGLP-1R; type: cell-based; details: HEK293 cells expressing hGLP-1R, 0.1% Casein, geometric mean; read-out: hGLP1R cAMP Rel EC50 nM (SEM, n)
# Sequence of human GLP-1 receptor (GLP-1R) (P43220 24-463): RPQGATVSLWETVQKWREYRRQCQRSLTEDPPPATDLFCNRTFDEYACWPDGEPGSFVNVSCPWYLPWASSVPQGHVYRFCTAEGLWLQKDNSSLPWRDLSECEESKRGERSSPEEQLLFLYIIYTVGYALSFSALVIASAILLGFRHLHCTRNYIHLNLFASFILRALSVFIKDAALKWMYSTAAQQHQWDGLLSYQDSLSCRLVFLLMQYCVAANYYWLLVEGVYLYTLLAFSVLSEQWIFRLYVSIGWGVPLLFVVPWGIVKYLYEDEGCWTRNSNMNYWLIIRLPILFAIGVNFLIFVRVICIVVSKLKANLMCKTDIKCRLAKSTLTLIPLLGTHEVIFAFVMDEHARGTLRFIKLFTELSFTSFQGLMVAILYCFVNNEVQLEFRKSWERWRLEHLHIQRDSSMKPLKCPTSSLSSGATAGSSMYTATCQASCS
# T2 sequence (P47871 26-477): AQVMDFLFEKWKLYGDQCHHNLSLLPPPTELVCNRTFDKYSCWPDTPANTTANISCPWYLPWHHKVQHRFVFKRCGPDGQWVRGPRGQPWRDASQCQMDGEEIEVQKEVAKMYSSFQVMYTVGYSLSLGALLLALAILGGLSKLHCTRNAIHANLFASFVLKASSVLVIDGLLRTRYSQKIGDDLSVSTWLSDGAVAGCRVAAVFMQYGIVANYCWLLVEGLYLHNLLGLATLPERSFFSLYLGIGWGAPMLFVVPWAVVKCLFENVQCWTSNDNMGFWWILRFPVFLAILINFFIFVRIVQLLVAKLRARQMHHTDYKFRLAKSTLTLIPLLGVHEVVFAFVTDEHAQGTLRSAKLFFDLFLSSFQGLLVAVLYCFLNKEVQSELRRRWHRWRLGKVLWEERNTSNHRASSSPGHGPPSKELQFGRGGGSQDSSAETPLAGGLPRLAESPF
# Sequence of human GLP-1R (P43220 24-463): as the sequence (P43220 24-463) above
SMILES,Ki (human GIP receptor),Ki (human GLP-1R),Ki (human Gcg receptor),EC50 [1],EC50 [2]
CC[C@H](C)[C@H](NC(=O)[C@H](CC(C)C)NC(=O)[C@](C)(Cc1ccc(O)cc1)NC(=O)[C@@H](CCC(=O)O)NC(=O)[C@@H](NC(=O)[C@H](Cc1ccccc1)NC(=O)[C@H](C)NC(=O)C(C)(C)NC(=O)[C@H](CCC(N)=O)NC(=O)[C@H](C)NC(=O)[C@H](CCCCNC(=O)COCCOCCNC(=O)COCCOCCNC(=O)CC[C@H](NC(=O)CCCCCCCCCCCCCCCCC(=O)O)C(=O)O)NC(=O)[C@H](CCCN)NC(=O)[C@H](CC(=O)O)NC(=O)[C@H](CC(C)C)NC(=O)[C@](C)(CC(C)C)NC(=O)[C@@H](NC(=O)[C@H](CO)NC(=O)[C@@H](NC(=O)[C@H](CC(=O)O)NC(=O)[C@H](CO)NC(=O)[C@@H](NC(=O)[C@](C)(Cc1ccccc1F)NC(=O)[C@@H](NC(=O)CNC(=O)[C@H](CCC(=O)O)NC(=O)C(C)(C)NC(=O)[C@@H](N)Cc1ccc(O)cc1)[C@@H](C)O)[C@@H](C)O)C(C)C)[C@@H](C)CC)[C@@H](C)CC)C(=O)N[C@@H](CCC(=O)O)C(=O)NCC(=O)NCC(=O)N1CCC[C@H]1C(=O)N[C@@H](CO)C(=O)N[C@@H](CO)C(=O)NCC(=O)N[C@@H](C)C(=O)N1CCC[C@H]1C(=O)N1CCC[C@H]1C(=O)N1CCC[C@H]1C(=O)N[C@@H](CO)C(N)=O [Example 242] (H-Y[Aib]EGT[αMePhe(2-F)]TSDVSI[αMeL]LD[Orn]K([AEEA-AEEA-γGlu-C18 diacid])AQ[Aib]AFI[dE][αMeY]LIEGGPSSGAPPPS-NH2),0.0604 nM,0.853 nM,95.9 nM,0.0333 nM,0.0164 nM
CC[C@H](C)[C@H](NC(=O)[C@H](CC(C)C)NC(=O)[C@](C)(Cc1ccc(O)cc1)NC(=O)[C@@H](CCC(=O)O)NC(=O)[C@@H](NC(=O)[C@H](Cc1ccccc1)NC(=O)[C@@H](NC(=O)C(C)(C)NC(=O)[C@H](CCC(N)=O)NC(=O)[C@H](C)NC(=O)[C@H](CCCCNC(=O)COCCOCCNC(=O)COCCOCCNC(=O)CC[C@H](NC(=O)CCCCCCCCCCCCCCCCC(=O)O)C(=O)O)NC(=O)[C@H](CCCN)NC(=O)[C@H](CC(=O)O)NC(=O)[C@H](CC(C)C)NC(=O)[C@](C)(CC(C)C)NC(=O)[C@@H](NC(=O)[C@H](CO)NC(=O)[C@H](CC(C)C)NC(=O)[C@H](CC(=O)O)NC(=O)[C@H](CO)NC(=O)[C@@H](NC(=O)[C@](C)(Cc1ccccc1F)NC(=O)[C@@H](NC(=O)CNC(=O)[C@H](CCC(=O)O)NC(=O)C(C)(C)NC(=O)[C@@H](N)Cc1ccc(O)cc1)[C@@H](C)O)[C@@H](C)O)[C@@H](C)CC)[C@@H](C)O)[C@@H](C)CC)C(=O)N[C@@H](CCC(=O)O)C(=O)NCC(=O)NCC(=O)N1CCC[C@H]1C(=O)N[C@@H](CO)C(=O)N[C@@H](CO)C(=O)NCC(=O)N[C@@H](C)C(=O)N1CCC[C@H]1C(=O)N1CCC[C@H]1C(=O)N1CCC[C@H]1C(=O)N[C@@H](CO)C(N)=O [Example 243] (H-Y[Aib]EGT[αMePhe(2-F)]TSDLSI[αMeL]LD[Orn]K([AEEA-AEEA-γGlu-C18 diacid])AQ[Aib]TFI[dE][αMeY]LIEGGPSSGAPPPS-NH2),0.0325 nM,0.67 nM,145 nM,0.0214 nM,0.0265 nM

# Reference: patent publication US12252524B2, “GIP/GLP1 co-agonist compounds” (Eli Lilly and Company, priority 2018, dated 2025)
